Test results as given in ChEMBL document CHEMBL1142713, “From 4,5,6,7-tetrahydro-5-methylimidazo[4,5,1-jk](1,4)benzodiazepin-2(1H)-one (TIBO) to etravirine (TMC125): fifteen years of research on non-nucleoside inhibitors of HIV-1 reverse transcriptase” (J Med Chem, 2005).

Tests used:
MT4 [1] = experiment: Effective concentration of the compound to inhibit HIV-1 replication in HIV-infected MT-4 cells; format: functional, cell-based; details: Homo sapiens
MT4 [2] = experiment: Effective concentration of the compound to inhibit HIV-1 mutant Y181C replication in HIV-infected MT-4 cells; format: functional, cell-based, Homo sapiens
MT4 [3] = experiment: Effective concentration of the compound to inhibit HIV-1 mutant K103N replication in HIV-infected MT-4 cells; format: functional, cell-based, Homo sapiens
MT4 [4] = experiment: Effective concentration of the compound to inhibit […] replication in HIV-infected MT-4 cells; format: functional, cell-based; details: Homo sapiens
MT4 [5] = experiment: Effective concentration of the compound to inhibit HIV-1 mutant L100I replication in HIV-infected MT-4 cells; format: functional, cell-based, Homo sapiens
MT4 [6] = experiment: Effective concentration of the compound to inhibit HIV-1 mutant Y188L replication in HIV-infected MT-4 cells; format: functional, cell-based, Homo sapiens
MT4 [7] = experiment: Effective concentration of the compound to inhibit HIV-1 mutant L100I+K103N replication in HIV-infected MT-4 cells; format: functional, cell-based, Homo sapiens
MT4 [8] = experiment: Effective concentration of the compound to inhibit HIV-1 mutant K103N+Y181C replication in HIV-infected MT-4 cells; format: functional, cell-based, Homo sapiens

| Compound | EC50 (MT4 [1]) | EC50 (MT4 [2]) | EC50 (MT4 [3]) | EC50 (MT4 [4]) | EC50 (MT4 [5]) | EC50 (MT4 [6]) | EC50 (MT4 [7]) | EC50 (MT4 [8]) |
| --- | --- | --- | --- | --- | --- | --- | --- | --- |
| N#Cc1ccc(Nc2nc(Cc3c(Cl)cccc3Cl)ns2)cc1 | > 1000 nM |  |  |  |  |  |  |  |
| CC(C)=CCN1Cc2cc(Cl)cc3[nH]c(=S)n(c23)C[C@@H]1C | 33 nM |  |  |  |  |  |  |  |
| N#Cc1ccc(NC(=S)NC(=N)Cc2c(Cl)cccc2Cl)cc1 |  | 510 nM | 590 nM | 3 nM | 510 nM | 320 nM |  |  |
| Cc1cc(C)c(Oc2ccnc(Nc3ccc(C#N)cc3)n2)c(C)c1 |  | 38 nM | 3 nM | 3 nM | 22 nM | 55 nM | 8200 nM | 1100 nM |
| Cc1cc(C#N)cc(C)c1Nc1ncnc(Nc2ccc(C#N)cc2)n1 |  | 50 nM | 8 nM | 1 nM | 250 nM | 50 nM | > 10000 nM |  |
| N#Cc1ccc(Nc2nc(N)nc(Cc3c(Cl)cccc3Cl)n2)cc1 |  | 200 nM | 40 nM | 6 nM | 400 nM | 320 nM |  |  |
| C=CCN1Cc2cccc3[nH]c(=O)n(c23)CC1C (stereo unspecified) | 62000 nM |  |  |  |  |  |  |  |
| COc1ccccc1NC(C(N)=O)c1c(Cl)cccc1Cl (stereo unspecified) | 610 nM |  |  |  |  |  |  |  |
| NC(=O)C(Nc1ccc(Cl)cc1)c1c(Cl)cccc1Cl (stereo unspecified) | > 50000 nM |  |  |  |  |  |  |  |
| N#Cc1ccc(Nc2cc(Cc3c(Cl)cccc3Cl)nc(N)n2)cc1 |  | > 10000 nM | > 10000 nM | 10 nM | > 10000 nM | > 10000 nM |  |  |
| Cc1cc(C#N)cc(C)c1Oc1nc(Nc2ccc(C#N)cc2)ncc1Br |  | 22 nM | 1 nM | 1 nM | 7 nM | 6 nM | 49 nM | 25 nM |
| NC(=O)C(NC(=O)c1ccccc1[N+](=O)[O-])c1c(Cl)cccc1Cl (stereo unspecified) | > 50000 nM |  |  |  |  |  |  |  |
| NC(=O)C(Nc1ccccc1[N+](=O)[O-])c1c(Cl)cccc1Cl (stereo unspecified) | 100 nM |  |  |  |  |  |  |  |
| Cc1cc(C#N)cc(C)c1Nc1ccnc(Nc2ccc(C#N)cc2)n1 |  | 7 nM | 2 nM | 0.4 nM | 34 nM | 8 nM | 1100 nM | 37 nM |
| Cc1cc(C#N)cc(C)c1Nc1nc(Nc2ccc(C#N)cc2)ncc1Br |  | 10 nM | 0.4 nM | 0.4 nM | 7 nM | 3 nM | 37 nM | 32 nM |
| NC(=O)C(NC(=O)Nc1ccccc1[N+](=O)[O-])c1c(Cl)cccc1Cl (stereo unspecified) | > 50000 nM |  |  |  |  |  |  |  |

| Compound | EC50 (MT4 [1]) | EC50 (MT4 [2]) | EC50 (MT4 [3]) | EC50 (MT4 [4]) | EC50 (MT4 [5]) | EC50 (MT4 [6]) | EC50 (MT4 [7]) | EC50 (MT4 [8]) |
| --- | --- | --- | --- | --- | --- | --- | --- | --- |
| Cc1cc(C)c(Nc2nc(Nc3ccc(C#N)cc3)ncc2Br)c(C)c1 |  | 36 nM | 7 nM | 6 nM | 11 nM | 27 nM | 350 nM | 280 nM |
| Cc1cc(C#N)cc(C)c1Oc1ccnc(Nc2ccc(C#N)cc2)n1 |  | 37 nM | 3 nM | 1 nM | 73 nM | 19 nM | 800 nM | 94 nM |
| NC(=O)C(/N=C(\S)Nc1ccc(Cl)cc1)c1c(Cl)cccc1Cl (stereo unspecified) | 160 nM |  |  |  |  |  |  |  |
| NC(=O)C(/N=C(\S)Nc1ccccc1Cl)c1c(Cl)cccc1Cl (stereo unspecified) | > 50000 nM |  |  |  |  |  |  |  |
| NC(=O)C(NCc1ccccc1[N+](=O)[O-])c1c(Cl)cccc1Cl (stereo unspecified) | > 50000 nM |  |  |  |  |  |  |  |
| NC(=O)C(Nc1ccccc1Cl)c1c(Cl)cccc1Cl (stereo unspecified) | 400 nM |  |  |  |  |  |  |  |
| Cc1cc(C)c(Oc2ncnc(Nc3ccc(C#N)cc3)n2)c(C)c1 |  | 20 nM | 3 nM | 0.6 nM | 20 nM | 63 nM | 2500 nM | 130 nM |
| N#Cc1ccc(Nc2cc(N)nc(Cc3c(Cl)cccc3Cl)n2)cc1 |  | > 10000 nM | > 10000 nM | 450 nM | > 10000 nM | > 10000 nM |  |  |
| N#Cc1ccc(Nc2nc(N)cc(Cc3c(Cl)cccc3Cl)n2)cc1 |  | 180 nM | 12 nM | 1 nM | 300 nM | 71 nM |  |  |
| Cc1cc(C)c(Nc2ccnc(Nc3ccc(C#N)cc3)n2)c(C)c1 [DAPIVIRINE] |  | 8 nM | 4 nM | 1 nM | 18 nM | 48 nM | > 10000 nM | 44 nM |
| CC(C)Nc1cccnc1N1CCN(C(=O)c2cc3cc(NS(C)(=O)=O)ccc3[nH]2)CC1 [DELAVIRDINE] |  | 2000 nM | 2500 nM | 63 nM | 2500 nM | 1300 nM |  | > 10000 nM |
| O=C1Nc2ccc(Cl)cc2[C@@](C#CC2CC2)(C(F)(F)F)O1 [EFAVIRENZ] |  | 2 nM | 40 nM | 1 nM | 40 nM | 160 nM | > 10000 nM | 40 nM |
| Cc1cc(C#N)cc(C)c1Oc1nc(Nc2ccc(C#N)cc2)nc(N)c1Br [ETRAVIRINE] |  | 7 nM | 1 nM | 1 nM | 3 nM | 5 nM | 19 nM | 4 nM |
| CC(=O)c1ccc(C)cc1NC(C(N)=O)c1c(Cl)cccc1Cl (stereo unspecified) [LOVIRIDE] |  | 16000 nM | 1300 nM | 13 nM | 50 nM | 50000 nM |  |  |
| Cc1ccnc2c1NC(=O)c1cccnc1N2C1CC1 [NEVIRAPINE] |  | 10000 nM | 6310 nM | 32 nM | 320 nM | > 100000 nM |  | > 10000 nM |
| CC(C)=CCN1Cc2c(Cl)ccc3[nH]c(=S)n(c23)C[C@@H]1C [TIVIRAPINE] | 4.6 nM |  |  |  |  |  |  |  |
